Measurements: EP4563573A1, “COMPOUND, AND PREPARATION METHOD THEREFOR AND USE THEREOF IN PREPARATION OF SEH INHIBITOR AND PPARS AGONIST” (Shenyang Pharmaceutical University, priority 2023, dated 2024)
Where two headings read alike, the source gives them in different places.

Columns and labels:
[1] = test system: CFA-induced AIA mouse model; conditions: C57BL/6 mice, oral gavage
[2] = test system: L-arginine-induced acute pancreatitis model; conditions: 5 mg/kg, n=5
Description: Pathological changes were studied on H&E stained pancreatic sections (FIG. 17).
Specifically, panel (A) represents edema, panel (B) represents inflammatory cells (mononuclear and polymorphonuclear cells), panel (C) represents parenchymal atrophy, and panel (D) represents the total score (edema, mononuclear cell, polymorphonuclear cell, and parenchymal atrophy) (n=5 for each group) *p<0.05, **p<0.01 vs Mod.

[3] = test system: CFA-induced rheumatoid arthritis model
Method: Except for the normal group, the animals in the other groups were injected with 25 µL/mouse of CFA at the bottom of right feet. Different drugs were prepared with pure water to the corresponding concentrations before administration. 30 min after modeling, different test substances were administrated to the animals in each group by oral gavage at 20 mL/kg, 1 time on the same day. The normal control group and the model control group were given the same volume of pure water. […] On the 20th day after modeling, all model animals were regrouped according to the joint index score and administrated with 20 mL/kg by oral gavage 1 time daily for consecutive 7 days. The joint index score of each group was determined on the 3rd and 7th days after administration, and the pain threshold of the animals was tested with a hot plate instrument after the last administration.
The significant figures of the test data were rounded off and statistical analysis was conducted in accordance with SOP. The software used for statistics was SPSS22.0. Measurement data were expressed as Mean ± standard deviation (x ± s), and Leven's test was used to test normality and homogeneity of variance. If there was no statistical significance (P>0.05), statistical analysis was done using one-factor ANOVA. If ANOVA was statistically significant (P≤0.05), LSD test (parametric method) was used for comparative analysis. If variance was unequal (P≤0.05), the Kruskal-Wallis test was used. If the Kruskal-Wallis test was statistically significant (P≤0.05), Dunnett's Test (nonparametric method) was used for comparative analysis.

[4] = test system: chronic granuloma model; conditions: rats, 20 mg/kg oral gavage once a day for 7 days (medium-dose; celecoxib group)
Method: After the animals were anesthetized by isoflurane inhalation, cotton balls of about 50 mg were buried in the groin of the rats on both sides. The surgical procedure was strictly conducted aseptically. Penicillin was injected intraperitoneally for anti-inflammatory treatment after surgery. Before administration, different drugs were prepared into a concentration of 0.5 mg/mL with pure water in each group, and different test substances were administered by oral gavage at 10 mL/kg, 1 time a day for consecutive 7 days, while the model control group was administrated with an equal volume of pure water. After the last administration, the mice were anesthetized by isoflurane inhalation and then bled, and the cotton ball granuloma was removed and weighed to calculate the degree of swelling (wet weight of cotton ball granuloma - dry weight of cotton ball).
The significant figures of the test data were rounded off and statistical analysis was conducted in accordance with SOP. The software used for statistics was SPSS22.0. Measurement data were expressed as Mean ± standard deviation (x ± s), and Leven's test was used to test normality and homogeneity of variance. If there was no statistical significance (P>0.05), statistical analysis was done using one-factor ANOVA. If ANOVA was statistically significant (P≤0.05), LSD test (parametric method) was used for comparative analysis. […]

[5] = molecular target: T1, PPARγ (Homo sapiens, UniProt P37231); assay: PPARγ agonist activity test (luciferase reporter gene); assay type: cell-based
T1 sequence (P37231 204-505): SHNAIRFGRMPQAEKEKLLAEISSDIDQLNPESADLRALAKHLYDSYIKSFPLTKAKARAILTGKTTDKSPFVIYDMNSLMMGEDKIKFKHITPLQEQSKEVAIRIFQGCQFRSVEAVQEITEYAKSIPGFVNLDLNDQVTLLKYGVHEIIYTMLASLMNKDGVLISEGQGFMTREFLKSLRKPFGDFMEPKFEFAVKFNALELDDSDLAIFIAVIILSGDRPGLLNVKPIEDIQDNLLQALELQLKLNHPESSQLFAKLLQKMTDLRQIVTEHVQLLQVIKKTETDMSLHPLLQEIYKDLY
Description: • 1. PPARγ agonist activity test Detection principle: when pM-hPPAR binds to the appropriate ligand, and is activated and binds to the GAL4DNA binding site in the plasmid pB4-RES-tk-luc, thereby initiating the expression of the downstream luciferase reporter gene. The amount of luciferase is detected to determine whether the compound to be tested is a PPAR agonist. • 2.

[6] = Stability of liver microsomes; conditions: for Average concentration in microsomal buffer: Rat; for half-life: rat, microsomes
Description: Table 5 Average concentration of SP-B07 in microsomal buffer at different time points (ng/mL)

[7] = Plasma protein binding rate (equilibrium dialysis); conditions: rat
Method: The plasma protein binding rate (%PPB) of SD rats was measured by classical equilibrium dialysis apparatus.

[8] = Pharmacokinetics after intravenous and oral administration
Method: Blood levels were measured within 8 hours after oral administration. […] Table 7 PK of SP-B07 after intravenous and oral administration in rats (n=3)

[9] = test system: CFA-induced AIA mouse model; assay: CFA-induced AIA mouse model, intraperitoneal injection; assay type: in vivo; conditions: female KM mice, compared with celecoxib-10 mg/kg
Method: (§1) The pain threshold of AIA mice was tested by the hot plate method. […] A curve of the increase in pain threshold over time was plotted (panel (B) in FIG. 10), and the AUC value of the percentage increase in pain threshold was obtained (panel (C) in FIG. 10). […] Finally, the thickness of the paws of the AIA mouse model at different time points after compound injection was evaluated and compared with the thickness of the mouse paws before modeling, and the swelling reduction rate of the mouse paws was calculated.
as §1, with “11),” for “10),”, “11).” for “10).”

[10] = test system: LPS-induced sepsis model; assay: LPS-induced sepsis model; assay type: in vivo, Male C57BL/6 mice; conditions: LPS 25 mg/kg i.p., administration 4 h after modeling, twice at 8 h interval, n=7
Method: The drug was administered twice, with an interval of 8 h between administrations.

[11] = test system: CD60 diet + streptozotocin-induced diabetes; assay: CD60 feed + streptozotocin-induced diabetes model; assay type: in vivo, male C57BL/6 mice; conditions: SP compounds 30 and 90 mg/kg; pioglitazone 3 mg/kg
Description: Diabetes is a chronic metabolic disease characterized by elevated blood glucose, and its incidence has been increasing over the past few decades. There is no desirable therapeutic drug at present, and the research on drugs for the treatment of diabetes and its related complications such as diabetic pain is highly urgent. […] Compared with the Control group, ****P<0.0001, ***P<0.001, **P<0.01 and *P<0.05.

[12] = molecular target: T2, murine sEH (MsEH) (Mus musculus, UniProt P34914); assay: biochemical
T2 sequence (P34914 1-554): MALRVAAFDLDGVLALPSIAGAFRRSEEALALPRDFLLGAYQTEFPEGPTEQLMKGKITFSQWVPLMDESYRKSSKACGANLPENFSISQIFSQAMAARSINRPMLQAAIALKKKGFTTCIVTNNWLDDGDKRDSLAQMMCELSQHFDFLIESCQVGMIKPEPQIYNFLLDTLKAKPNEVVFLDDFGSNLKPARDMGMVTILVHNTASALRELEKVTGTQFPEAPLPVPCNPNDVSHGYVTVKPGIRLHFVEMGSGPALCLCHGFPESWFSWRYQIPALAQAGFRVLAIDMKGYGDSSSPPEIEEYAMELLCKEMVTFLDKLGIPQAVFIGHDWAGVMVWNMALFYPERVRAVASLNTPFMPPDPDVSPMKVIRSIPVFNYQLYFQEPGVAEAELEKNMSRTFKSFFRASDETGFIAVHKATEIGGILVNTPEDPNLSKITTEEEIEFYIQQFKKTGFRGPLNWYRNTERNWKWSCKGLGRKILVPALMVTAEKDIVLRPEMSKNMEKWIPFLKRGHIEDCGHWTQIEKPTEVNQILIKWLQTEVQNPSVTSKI
Method: (§2) Detection principle: a specific substrate, (3-phenyl-oxy)-acetic acid cyano-(6-methoxy-naphthalen-2-yl) methyl ester, namely PHOME, is non-fluorescent but can be hydrolyzed under the action of sEH enzyme to generate a product 6-methoxy-2-naphthaldehyde. […] Based on the above principle, the inhibition rates of samples with different concentrations were calculated compared with the positive control group. The IC50 value of the compound was calculated based on the inhibition rate and concentration using SPSS 20 software.
(§3) PHOME solution: 0.79 mg PHOME was dissolved in 106 µL DMSO to obtain a 20 mM PHOME solution, which was diluted to 1/3 mM with Tris-HCl buffer when used.
(§4) sEH solution: sEH (5 mg/mL) stock solution was stored in a -80°C refrigerator and diluted to 4 µg/mL with 25 mM Tris-HCl buffer when used.
(§5) A sample powder to be tested was dissolved in DMSO to a 20 mM solution, stored in a - 20°C refrigerator for later use, and diluted with Tris-HCl buffer to the corresponding concentration when used.
(§6) Experimental design: solvent group, 100% activity group (A), inhibitor group (B), positive control group (C), as shown in Table 1.
(§7) Three replicate wells were set for each sample, and the average of the three replicate wells was the fluorescence value (F) of the compound to be tested. […] The IC50 value of the compound was calculated based on the inhibition rate and concentration using SPSS 20 software.
(§8) The activity of the compounds was evaluated using a biochemical method with [cyano-(6-methoxynaphthalen-2-yl)methyl] 2-(3-phenyloxiran-2-yl)acetate (PHOME) as a substrate using recombinant human sEH (HsEH) and murine sEH (MsEH).

[13] = molecular target: T3, recombinant human sEH (HsEH) (Homo sapiens, UniProt P34913)
T3 sequence (P34913 1-555): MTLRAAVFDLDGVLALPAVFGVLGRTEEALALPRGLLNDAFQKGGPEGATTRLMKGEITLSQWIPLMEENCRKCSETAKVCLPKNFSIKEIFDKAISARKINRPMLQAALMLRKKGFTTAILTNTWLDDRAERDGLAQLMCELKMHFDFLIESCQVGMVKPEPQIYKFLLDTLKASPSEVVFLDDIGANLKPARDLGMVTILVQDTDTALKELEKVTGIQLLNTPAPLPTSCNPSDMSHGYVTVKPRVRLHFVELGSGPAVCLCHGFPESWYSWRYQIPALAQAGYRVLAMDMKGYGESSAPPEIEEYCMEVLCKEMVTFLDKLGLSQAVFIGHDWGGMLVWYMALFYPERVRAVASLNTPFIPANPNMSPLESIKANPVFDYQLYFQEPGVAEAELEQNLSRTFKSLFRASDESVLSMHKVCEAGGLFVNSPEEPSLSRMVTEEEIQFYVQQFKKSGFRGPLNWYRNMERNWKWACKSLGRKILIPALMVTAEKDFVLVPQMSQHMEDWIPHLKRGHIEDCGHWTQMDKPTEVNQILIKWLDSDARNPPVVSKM
Method: as §2, §3, §4, §5, §6, §7, §8

[14] = 30 mg/kg oral gavage (medium-dose; celecoxib group), 0.5 h after administration
[15] = 30 mg/kg oral gavage (medium-dose; celecoxib group), 2 h after administration
[16] = 30 mg/kg oral gavage (medium-dose; celecoxib group), 4 h after administration

Which results are given for `Cc1ccc(-c2cc(C(F)(F)F)nn2-c2ccc(S(N)(=O)=O)cc2)cc1` [Celecoxib, celecoxib]?
time after administration at which the pain threshold began to rise [1]: 30 min; pancreatic injury histological score [2]: 3.50±1.80; Pain threshold in acute inflammatory state ([3]; 30 mg/kg group (medium-dose; celecoxib group), Before administration): 20.7±4.2; Pain threshold in chronic inflammatory state ([3]; 30 mg/kg oral gavage (medium-dose; celecoxib group), once daily for 7 days, End of administration): 13.7±4.6; Acute pain threshold increase rate of mice [3, 14]: -35.2±29.8%; Pain threshold in acute inflammatory state [3, 14]: 13.2±6.3; Acute pain threshold increase rate of mice ([3]; 30 mg/kg oral gavage (medium-dose; celecoxib group), 1 h after administration): -52.3±55.5%; Acute pain threshold increase rate of mice [3, 15]: 34.52±54.1 %; Pain threshold in acute inflammatory state [3, 15]: 23.9±5.3; Acute pain threshold increase rate of mice [3, 16]: -11.6±32.6 %; Pain threshold in acute inflammatory state [3, 16]: 18.7±6.0; Swelling degree [4]: 0.9904±0.12++

For `O=C(Nc1ccc(OC(F)(F)F)c(F)c1)NC1CCC(Oc2ccc(C=C3SC(=O)NC3=O)cc2)CC1` (centres unmarked) [SP-B07, 1-((1r,4r)-4-{4-[(E)-(2,4-dioxothiazolidin-5-ylidene)methyl]phenoxy}cyclohexyl)-3-[3-fluoro-4-(trifluoromethoxy)phenyl]urea], which EC50 [5] is on record?
The EC50 was 1430 nM.

And the “PPARγ (compared with Rosiglitazone, %)” value ([5]; relative to Rosiglitazone)?
The value was 19.3%.

What about the “Average concentration in microsomal buffer” value (shortened to “Average concentration”) ([6]; 0 min) of the same compound?
Its value is 100 ng/mL.

And the “Average concentration” value ([6]; 10 min)?
The value was 86.26 ng/mL.

What about the “Average concentration” value ([6]; 60 min) of the same compound?
Its value is 58.82 ng/mL.

What about the “Average concentration” value ([6]; 120 min) of the same compound?
Its value is 57.01 ng/mL.

What about the “Average concentration” value ([6]; 240 min) of the same compound?
Its value is 55.61 ng/mL.

What about the “Average concentration” value ([6]; 360 min) of the same compound?
Its value is 52.33 ng/mL.

What about the “Average concentration” value ([6]; 720 min) of the same compound?
The value was 43.73 ng/mL.

And the half-life ([6]; half-life (t1/2) in rat liver microsomes, rat liver microsomes)?
The half-life was 5.5 h.

And the half-life ([6]; t1/2, rat liver microsomes, table)?
Its half-life is 5.5 h.

What about the fraction unbound [7] of the same compound?
Its fraction unbound is 0.0471.

What about the AUC(0-inf) ([8]; rat, in vivo, iv, 10 mg/kg) of the same compound?
Its AUC(0-inf) is 16.9 µM·h.

And the AUC(0-t) at 8 h ([8]; rat, in vivo, iv, 10 mg/kg)?
The AUC(0-t) at 8 h was 14.1 µM·h.

And the Cmax ([8]; rat, in vivo, iv, 10 mg/kg)?
The Cmax was 3290 nM.

What about the Tmax ([8]; rat, in vivo, iv, 10 mg/kg) of the same compound?
Its Tmax is 0.083 h.

And the Vd ([8]; rat, in vivo, iv, 10 mg/kg)?
Its Vd is 3.71 L/kg.

And the clearance ([8]; rat, in vivo, iv, 10 mg/kg)?
Its clearance is 13.2 mL/min/kg.

And the half-life ([8]; rat, in vivo, iv, 10 mg/kg, t1/2, rats, i.v. 10 mg/kg)?
The half-life was 1.91 h.

What about the AUC(0-inf) ([8]; rat, in vivo, po, 50 mg/kg) of the same compound?
Its AUC(0-inf) is 17.7 µM·h.

And the AUC(0-t) at 8 h ([8]; rat, in vivo, po, 50 mg/kg)?
The AUC(0-t) at 8 h was 13.8 µM·h.

And the Cmax ([8]; rat, in vivo, po, 50 mg/kg)?
The Cmax was 1140 nM.

And the Tmax ([8]; rat, in vivo, po, 50 mg/kg)?
Its Tmax is 0.5 h.

What about the bioavailability ([8]; rat, in vivo, po, 50 mg/kg) of the same compound?
Its bioavailability is 19.5%.

And the “time at which maximum concentration was reached after intravenous injection” value ([8]; rats, i.v. 10 mg/kg)?
The value was 2 min.

And the t1/2 ([8]; rats, i.v. 10 mg/kg, 10 mg/kg)?
The t1/2 was 3.26 h.

What about the “analgesic effect (percentage increase in pain threshold, hot plate method)” value [9] of the same compound?
Its value is “better than that of celecoxib”.

And the “detumescence rate on mouse paws (swelling reduction rate)” value [9]?
The value was “superior to celecoxib”.

What about the “increase of the survival rate” value [10] of the same compound?
Its value is 42.8%.

What about the “lowering blood glucose and improving diabetic neuropathic pain” value [11] of the same compound?
Its value is “effective”.

What about the IC50 [12] of the same compound?
The IC50 was 0.42 nM.

And the IC50 [13]?
Its IC50 is 0.06 nM.
